Entries after “also recorded” stand apart in the source; their conditions may differ.

What all share (assay type): in vivo, C57BL/6 mice
One test relates to Osteopontin. Kind of test: Osteopontin in CNS tissues of EAE mice by ELISA. The following applies: spinal cord, brain and cerebellum, day 21 post-immunization, vs EAE mice. On the procedure:
Animals of the different experimental groups were sacrificed at day 21 post-immunization and CNS protein extracts (cerebral cortex, cerebellum and spinal cord) were prepared by homogenization in a solution: 0.4 M NaCl, 0.05% Tween 20, 0.5% BSA, 0.1 mM phenylmethylsulfonyl fluoride, 0.1 mM benzetonium chloride, 10 mM EDTA and 20 KI aprotinin (100 mg tissue/ml). The homogenate was centrifuged at 10,000 rpm for 10 min at 4° C. The concentration of osteopontin was determined in the supernatants by a commercial ELISA kit.
Background: In an ELISA, binding on a coated surface is turned into a signal by an enzyme label.

Test [1] relates to leukocyte rolling and adhesion on brain microvasculature. Briefly: Intravital fluorescence microscopy of leukocyte-endothelium interactions in brain microvasculature of EAE mice. The following applies: vs untreated EAE group. How it is done:
Intravital microscopy techniques allow the study of leukocyte-endothelium interactions. […] To make a precise study of leukocyte-endothelium interactions, we first made a record of the venule for one minute using a camcorder, and in a second time, a more detailed analysis was performed. The parameters of interest were the number of leukocytes adhering to the venular endothelium (number of leukocytes stationary for more than 30 seconds), and the number of rolling leukocytes (number of white cells per minute moving at a velocity less than that of erythrocytes).
The craniotomy was performed on the parietal zone. Animals received i.v. administration of rhodamine 6G (0.3 mg/kg body weight) to fix leucocytes. The fluorescence associated to rhodamine 6G was visualized at 510-560 nm by epi-ilumination. The microscope (20×) was used for observing micro-circulating events in brain.

Test [2] relates to experimental autoimmune encephalomyelitis (EAE) mice. Kind of test: Experimental autoimmune encephalomyelitis (EAE) in mice: clinical score, body weight, survival. On the procedure:
In the experiments we used fifteen animals per group. EAE was induced as described (Slavin A. Autoimmunity 1998, 28: 109) in C57BL mice by […]. The immunization was carried out with 100 μg of a partial peptide of myelin/oligodendrocyte glycoprotein ([…]) in complete Freund's adjuvant containing 4 mg of Mycobacterium tuberculosis H37Ra in 1 ml. The mice were immunized by subcutaneous injection of this emulsion on day 0. In addition, on day 0 and 2, were administered intraperitoneally 300 ng/200 μl of Bordetella pertussis toxin. The administration of 6 mg/kg of oleanolic acid was performed intraperitoneally once a day, beginning:
1.—12 days after induction of EAE, when clinical symptoms were detected, until the end of the experiment (21 days after induction) (OA1), and
2.—after 7 days of induction of EAE, before the onset of the disease, until the end of the experiment (21 days after induction) (OA2).
Mice were examined, weighed and scored daily in a double-blind manner for signs of EAE. OA-treated EAE mice were compared with a group of EAE animals treated with placebo, with untreated control animals or control animals received the same daily dose oleanolic acid. In addition, a pathologic evaluation was performed to confirm the effect of improving the state of the disease. The weight of the mice in each group is represented in FIGS. 1 A and 2 A. The level of paralysis reached by each group of mice is shown in FIGS. 1 B and 2 B.
The effect of disease improvement (clinical effect) by the action of oleanolic acid is scored and evaluated with the pattern presented below.
Grade 0.5, partial loss/reduced tail tone, assessed by inability to curl the distal end of the tail (Tail 50% or ⅔).
Grade 1.0, tail atony 100%
Grade 1.5, slightly/moderately clumsy gait, impaired righting ability, or combination.
Grade 2.0, hind limb weakness, partial (1 or 2)
Grade 2.5, partial (1 or 2) hind limb paralysis.
Grade 3, complete hind limb paralysis.
Grade 3.5, limb weakness.
Grade 4, tetraplegic. Complete limb paralysis
Grade 5, moribund state or death.
Chronic progressive EAE disease was induced in adult 8-10-wk-old female C57BL/J6 mice following the protocol described by (Slavin A. Autoimmunity 1998, 28:109-20). Mice were injected in the tail base bilaterally with an innoculum containing 100 μg of MOG peptide 35-55 emulsified in complete Freund's adjuvant containing 0.4 mg/ml Mycobacterium tuberculosis H37 RA. Then, i.p. injection 300 ng/animal of B. pertussis toxin was administered by two times with an interval of 48 hours. Mice were examined daily to monitor weight loss and the onset of neurological symptoms

The test system of test [3] is blood-brain barrier permeability. Kind of test: Evans blue extravasation (blood-brain barrier permeability) in CNS tissues of EAE mice. The conditions noted are these: spinal cord, brain and cerebellum, vs untreated EAE animals. On the procedure: Evans blue dye is able to bind quantitatively to albumin, both in vivo and in vitro. This property has been widely used for quantification of protein extravasation as an index of increased vascular permeability and, indirectly, of tissue damage. The Evans Blue, once extravasated into the tissues, is removed from them, and then quantified by visible spectrophotometry.
Mice from all experimental groups were given 30 mg/kg of Evans Blue i.p. Then, the spinal cord, cerebrum and cerebellum was removed and washed in saline. The dye was extracted from the CNS tissues with formamide and the concentration was determined by measuring the absorvance at 620 nm. CNS tissue was dried 24 h at 60° C. and weighed. The extravasated dye was expressed as μg of Evans Blue/mg dried weight of the tissue.

`CC1(C)CC[C@]2(C(=O)O)CC[C@]3(C)C(=CCC4[C@@]5(C)CC[C@H](O)C(C)(C)C5CC[C@]43C)C2C1` (stereo partly drawn) [oleanolic acid, 3β-hydroxyolean-12-en-28-oic acid]: the “Osteopontin expression in CNS tissues” value in the test with Osteopontin (protocol OA1) is “significantly reduced”; in the test with Osteopontin (second protocol (printed OA1, FIG. 5: EAE+OA2)) it was “significantly reduced”. Further, the “flow of leukocytes rolling on the endothelium” value in test [1] (protocol EAE+OA1) and in test [1] (protocol EAE+OA2) was “significant decrease” throughout. Also, the “leukocytes adhering to the endothelium” value in test [1] (protocol EAE+OA1) and in test [1] (protocol EAE+OA2) was “significant decrease” each time. The “clinical status / severity of the disease (signs of paralysis score)” value in test [2] (OA1: 6 mg/kg ip daily from day 12 after induction (onset of clinical symptoms) to day 21, vs untreated EAE mice) is “decreases the severity of the disease; also recorded: significant improvement in clinical status of the disease”. The body weight result is “reduction of body weight was suppressed” in test [2] (OA1: 6 mg/kg ip daily from onset of symptoms, recovery effect (FIG. 1A)) and “reduction of body weight was suppressed” in test [2] (OA2: 6 mg/kg ip daily from day 7, preventive effect (FIG. 2A)). Also, the “onset of the disease” value in test [2] (OA2: prophylactic, 6 mg/kg ip daily from day 7 after induction to day 21, 6 mg/kg) is on record as “delays the onset of EAE; also recorded: delay in the onset of the disease”. Moreover, in test [2] (OA2: prophylactic, 6 mg/kg ip daily from day 7 after induction to day 21, vs untreated EAE mice), the “severity of EAE (clinical signs)” value is on record as “significantly attenuated”. Besides, the “survival (time until animals die)” value in test [2] (oleanolic acid given at the onset of symptoms, placebo-treated EAE mice die within first 40 days) is at least 60 days post-induction. Also, the “Evans blue leakage in CNS tissues (vascular permeability)” value in test [3] (protocol EAE+OA1) and in test [3] (protocol EAE+OA2) was “significantly reduced leakage” each time.

Source of the values: US20110054025A1, “USE OF A PENTACYCLIC TRITERPENE IN A PHARMACEUTICAL COMPOSITION FOR THE TREATMENT OF MULTIPLE SCLEROSIS” (CONSEJO SUPERIOR DE INVESTIGACIONES CIENTIFICAS, priority 2008, published 2011).
